Assay results from patent US9744178B2, “Respirable agglomerates of porous carrier particles and micronized drug” (Novartis AG, priority 2013, dated 2017).

Columns and labels:
[1] = Delivered dose uniformity from Concept1 dry powder inhaler; assay type: physicochemical; conditions: each drug in respirable agglomerates Lot 11015A-7-6, size 3 hypromellose capsules, Concept1, 60 L/min, 2 L, on filter, RP-HPLC
Procedure: “Emitted Dose” or “ED” as used herein refers to an indication of the delivery of dry powder from an inhaler device after an actuation or dispersion event from a powder unit. ED is defined as the ratio of the dose delivered by an inhaler device to the nominal or metered dose. The ED is an experimentally determined parameter, and may be determined using an in vitro device set up which mimics patient dosing. It is sometimes also referred to as the Delivered Dose (DD). The ED is determined using a drug specific method such as high pressure liquid chromatography.
The bulk powder was filled into size 3 hypromellose capsules. The capsules were then individually filled into a Concept1 dry powder Inhaler (as described herein). The Concept1 Inhaler is a low resistance, capsule-based dry powder Inhaler. The device was emptied at a flow rate of 60 L/min and an inhaled volume of 2 L onto a filter. The mass of each Individual drug on the filter was quantitated by RP-HPLC. The total mass of powder on the filter was also determined gravimetrically.

[2] = Particle size (x50, x90) of micronized drug crystals; assay type: physicochemical; conditions: micronized drug crystals used in the respirable agglomerates
Procedure: “Mass median diameter” or “MMD” or “×50” as used herein means the median diameter of a plurality of particles, typically in a polydisperse particle population, i.e., consisting of a range of particle sizes. MMD values as reported herein are determined by laser diffraction (Sympatec Helos, Clausthal-Zellerfeld, Germany), unless the context indicates otherwise.
An MMD or an ×50 (particle size distribution wherein 50% of the particles are sized smaller) of the micronized active ingredients should be less than about 3 micron (μm), preferably less than about 2 μm, or 1 μm. In embodiments of the invention, an ×50 is about 0.1-3 μm. An ×90 (particle size distribution wherein 90% of the particles are sized smaller) should be less than 7 μm, preferably less than 5 μm, or 3 μm.

[3] = Physical form of indacaterol acetate by X-ray powder diffraction; assay type: physicochemical; conditions: for Physical stability of the salt form in water: suspended in water / aqueous feedstock to be spray-dried, acetate
Procedure: In the process of the present invention, an ordered mixture of micronized indacaterol acetate crystals and small porous particles are created by suspending the particles in a liquid perfluorocarbon, and then removing the liquid in a drying process. The physical form of the indacaterol acetate drug substance can be determined by X-ray powder diffraction (XRPD).
The pattern is dominated by the characteristic phospholipid peak at 20=21°. […] Peaks characteristic of indacaterol free base are not present.

β2-adrenoceptor = β2-adrenoceptor (Homo sapiens, UniProt P07550); conditions: cited from earlier work
Chain of β2-adrenoceptor (P07550 whole entry, species assumed): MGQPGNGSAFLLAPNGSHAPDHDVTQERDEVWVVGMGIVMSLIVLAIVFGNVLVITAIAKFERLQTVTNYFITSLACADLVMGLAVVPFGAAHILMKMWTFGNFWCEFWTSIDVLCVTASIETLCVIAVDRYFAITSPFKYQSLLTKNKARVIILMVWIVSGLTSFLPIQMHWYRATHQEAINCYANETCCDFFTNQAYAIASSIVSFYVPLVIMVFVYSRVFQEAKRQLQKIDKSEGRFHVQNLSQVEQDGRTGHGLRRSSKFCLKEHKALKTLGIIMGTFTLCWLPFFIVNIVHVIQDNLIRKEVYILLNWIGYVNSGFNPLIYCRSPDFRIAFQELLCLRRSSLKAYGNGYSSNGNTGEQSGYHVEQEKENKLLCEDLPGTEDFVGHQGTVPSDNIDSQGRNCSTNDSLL

Structure (SMILES) | Mean delivered dose (% nominal) [1] [% nominal] | ×50 [2] [μm] | ×90 [2] [μm] | Physical form after dispersion in PFOB ([3]; suspended in perfluorooctyl bromide, XRPD) | Physical stability of the salt form in water [3] | Physical stability of the salt form in water ([3]; listed as Indacaterol acetate) | Duration of action (β2-adrenoceptor) | Onset of action (β2-adrenoceptor)
C[N+]1(C)CCC(OC(=O)C(O)(c2ccccc2)C2CCCC2)C1.[Br-] (centres unmarked) [Glycopyrronium bromide, 3-[(cyclopentyl-hydroxyphenyl-acetyl)oxy]-1,1-dimethylpyrrolidinium bromide] | 82.1 | 2.96 | 6.52 | – | – | – | – | –
CC(=O)O.CCc1cc2c(cc1CC)CC(NC[C@H](O)c1ccc(O)c3[nH]c(=O)ccc13)C2 [indacaterol acetate, (R)-5-[2-(5,6-diethyl-indan-2-ylamino)-1-hydroxyethyl]-8-hydroxy-1H-quinolin-2-one acetate] | 83.5 | 1.63 | 3.08 | salt form of the drug is maintained | rapidly disproportionates to form indacaterol free base and acetic acid | rapidly disproportionating to form indacaterol free base and acetic acid | – | –
CCc1cc2c(cc1CC)CC(NC[C@H](O)c1ccc(O)c3[nH]c(=O)ccc13)C2 [indacaterol, (R)-5-[2-(5,6-diethyl-indan-2-ylamino)-1-hydroxyethyl]-8-hydroxy-1H-quinolin-2-one] | – | – | – | – | – | – | over 24 hours | about 10 minutes
C[C@@H]1C[C@H]2[C@@H]3CCC4=CC(=O)C=C[C@]4(C)[C@@]3(Cl)[C@@H](O)C[C@]2(C)[C@@]1(OC(=O)c1ccco1)C(=O)CCl [mometasone furoate, (11β,16α)-9,21-dichloro-17-[(2-furanylcarbonyl)oxy]-11-hydroxy-16-methylpregna-1,4-diene-3,20-dione] | 84.8 | 1.22 | 2.45 | – | – | – | – | –
